From ChEMBL document CHEMBL2440076, “New triarylpyrazoles as broad-spectrum anticancer agents: design, synthesis, and biological evaluation” (Eur J Med Chem, 2013)

What was measured:
Assay type in all cases: functional
[1] = test system: MDA-MB-435; test: Growth inhibition of human MDA-MB-435 cells assessed as cell growth at 3X10'-6 M after 48 hrs by sulforhodamine B assay; conditions: MDA-MB-435, 48 h, read-out: Activity
[2] = test system: K562; test: Growth inhibition of human K562 cells assessed as cell growth at 3X10'-9 M after 48 hrs by sulforhodamine B assay; conditions: K562, 48 h, read-out: Activity
[3] = test system: U-251; test: Growth inhibition of human U251 cells assessed as cell growth at 3X10'-7 M after 48 hrs by sulforhodamine B assay; conditions: U-251, 48 h, read-out: Activity
[4] = test system: CAKI-1; test: Growth inhibition of human CAKI-1 cells assessed as cell growth at 3X10'-9 M after 48 hrs by sulforhodamine B assay; conditions: CAKI-1, 48 h, read-out: Activity
[5] = test system: BT-549; test: Growth inhibition of human BT549 cells assessed as cell growth at 3X10'-7 M after 48 hrs by sulforhodamine B assay; conditions: BT-549, 48 h, read-out: Activity
[6] = test system: CCRF-CEM; test: Growth inhibition of human CCRF-CEM cells assessed as cell growth at 3X10'-8 M after 48 hrs by sulforhodamine B assay; conditions: read-out: Activity
[7] = test system: HT-29; test: Growth inhibition of human HT-29 cells assessed as cell growth at 3X10'-8 M after 48 hrs by sulforhodamine B assay; conditions: HT-29, 48 h, read-out: Activity
[8] = test system: A498; test: Growth inhibition of human A498 cells assessed as cell growth at 3X10'-7 M after 48 hrs by sulforhodamine B assay; conditions: A498, 48 h, read-out: Activity
[9] = test system: HCT-116; test: Growth inhibition of human HCT116 cells assessed as cell growth at 3X10'-7 M after 48 hrs by sulforhodamine B assay; conditions: HCT-116, 48 h, read-out: Activity
[10] = test system: OVCAR-3; test: Growth inhibition of human OVCAR3 cells assessed as cell growth at 3X10'-5 M after 48 hrs by sulforhodamine B assay; conditions: OVCAR-3, 48 h, read-out: Activity
[11] = test system: NCI-H226; test: Growth inhibition of human NCI-H226 cells assessed as cell growth at 3X10'-7 M after 48 hrs by sulforhodamine B assay; conditions: NCI-H226, 48 h, read-out: Activity
[12] = test system: SF-539; test: Growth inhibition of human SF539 cells assessed as cell growth at 3X10'-5 M after 48 hrs by sulforhodamine B assay; conditions: SF-539, 48 h, read-out: Activity
[13] = test system: NCI-H226; test: Growth inhibition of human NCI-H226 cells assessed as cell growth at 3X10'-5 M after 48 hrs by sulforhodamine B assay; conditions: NCI-H226, 48 h, read-out: Activity
[14] = test system: NCI-H23; test: Growth inhibition of human NCI-H23 cells assessed as cell growth at 3X10'-8 M after 48 hrs by sulforhodamine B assay; conditions: NCI-H23, 48 h, read-out: Activity
[15] = test system: UACC-62; test: Growth inhibition of human UACC62 cells assessed as cell growth at 3X10'-7 M after 48 hrs by sulforhodamine B assay; conditions: UACC-62, 48 h, read-out: Activity
[16] = test system: HL-60(TB); test: Growth inhibition of human HL-60(TB) cells assessed as cell growth at 3X10'-5 M after 48 hrs by sulforhodamine B assay; conditions: HL-60, 48 h, read-out: Activity
[17] = test system: NCI-H460; test: Growth inhibition of human NCI-H460 cells assessed as cell growth at 3X10'-5 M after 48 hrs by sulforhodamine B assay; conditions: NCI-H460, 48 h, read-out: Activity
[18] = test system: U-251; test: Growth inhibition of human U251 cells assessed as cell growth at 3X10'-5 M after 48 hrs by sulforhodamine B assay; conditions: U-251, 48 h, read-out: Activity
[19] = test system: Malme-3M; test: Growth inhibition of human MALME-3M cells assessed as cell growth at 3X10'-6 M after 48 hrs by sulforhodamine B assay; conditions: read-out: Activity
[20] = test system: NCI-H322M; test: Growth inhibition of human NCI-H322M cells assessed as cell growth at 3X10'-9 M after 48 hrs by sulforhodamine B assay; conditions: read-out: Activity
[21] = test system: COLO 205; test: Growth inhibition of human COLO205 cells assessed as cell growth at 3X10'-9 M after 48 hrs by sulforhodamine B assay; conditions: COLO 205, 48 h, read-out: Activity
[22] = Growth inhibition of human HCC2998 cells assessed as cell growth at 3X10'-7 M after 48 hrs by sulforhodamine B assay; conditions: HCC 2998, 48 h, read-out: Activity
[23] = test system: MDA-MB-231; test: Growth inhibition of human MDA-MB-231 cells assessed as cell growth at 3X10'-9 M after 48 hrs by sulforhodamine B assay; conditions: MDA-MB-231, 48 h, read-out: Activity
[24] = test system: HCT-15; test: Growth inhibition of human HCT15 cells assessed as cell growth at 3X10'-6 M after 48 hrs by sulforhodamine B assay; conditions: HCT-15, 48 h, read-out: Activity
[25] = test system: UACC-257; test: Growth inhibition of human UACC257 cells assessed as cell growth at 3X10'-7 M after 48 hrs by sulforhodamine B assay; conditions: UACC-257, 48 h, read-out: Activity
[26] = Growth inhibition of human HCC2998 cells assessed as cell growth at 3X10'-8 M after 48 hrs by sulforhodamine B assay; conditions: HCC 2998, 48 h, read-out: Activity
[27] = test system: COLO 205; test: Growth inhibition of human COLO205 cells assessed as cell growth at 3X10'-6 M after 48 hrs by sulforhodamine B assay; conditions: COLO 205, 48 h, read-out: Activity
[28] = test system: K562; test: Growth inhibition of human K562 cells assessed as cell growth at 3X10'-6 M after 48 hrs by sulforhodamine B assay; conditions: K562, 48 h, read-out: Activity
[29] = test system: OVCAR-4; test: Growth inhibition of human OVCAR4 cells assessed as cell growth at 5X10'-7 M after 48 hrs by sulforhodamine B assay; conditions: OVCAR-4, 48 h, read-out: Activity
[30] = test system: IGROV-1; test: Growth inhibition of human IGROV1 cells assessed as cell growth at 5X10'-5 M after 48 hrs by sulforhodamine B assay; conditions: IGROV-1, 48 h, read-out: Activity
[31] = test system: CAKI-1; test: Growth inhibition of human CAKI-1 cells assessed as cell growth at 5X10'-7 M after 48 hrs by sulforhodamine B assay; conditions: CAKI-1, 48 h, read-out: Activity
[32] = test system: SF-268; test: Growth inhibition of human SF268 cells assessed as cell growth at 5X10'-6 M after 48 hrs by sulforhodamine B assay; conditions: SF-268, 48 h, read-out: Activity
[33] = test system: BT-549; test: Growth inhibition of human BT549 cells assessed as cell growth at 5X10'-5 M after 48 hrs by sulforhodamine B assay; conditions: BT-549, 48 h, read-out: Activity
[34] = test system: SNB-75; test: Growth inhibition of human SNB75 cells assessed as cell growth at 5X10'-6 M after 48 hrs by sulforhodamine B assay; conditions: SNB-75, 48 h, read-out: Activity
[35] = test system: MCF7; test: Growth inhibition of human MCF7 cells assessed as cell growth at 5X10'-8 M after 48 hrs by sulforhodamine B assay; conditions: MCF7, 48 h, read-out: Activity
[36] = test system: OVCAR-5; test: Growth inhibition of human OVCAR5 cells assessed as cell growth at 5X10'-8 M after 48 hrs by sulforhodamine B assay; conditions: OVCAR-5, 48 h, read-out: Activity

Structure (SMILES): O=C(Nc1cccc(-n2cc(-c3ccncc3)c(-c3ccc(Cl)c(O)c3)n2)c1)Nc1ccc(Cl)c(C(F)(F)F)c1
- growth at 3 µM [1]: -31%
- growth at 0.003 µM [2]: 99%
- growth at 0.3 µM [3]: 82%
- growth at 0.003 µM [4]: 89%
- growth at 0.3 µM [5]: 104%
- growth at 0.03 µM [6]: 97%
- growth at 0.03 µM [7]: 107%
- growth at 0.3 µM [8]: 95%
- growth at 0.3 µM [9]: 94%
- growth at 30 µM [10]: -16%
- growth at 0.3 µM [11]: 82%
- growth at 30 µM [12]: -37%
- growth at 30 µM [13]: 5%
- growth at 0.03 µM [14]: 100%
- growth at 0.3 µM [15]: 89%
- growth at 30 µM [16]: 6%
- growth at 30 µM [17]: -41%
- growth at 30 µM [18]: -80%
- growth at 3 µM [19]: -32%
- growth at 0.003 µM [20]: 97%
- growth at 0.003 µM [21]: 105%
- growth at 0.3 µM [22]: 95%
- growth at 0.003 µM [23]: 92%
- growth at 3 µM [24]: 4%
- growth at 0.3 µM [25]: 93%
- growth at 0.03 µM [26]: 102%
- growth at 3 µM [27]: 42%
- growth at 3 µM [28]: 3%

Structure (SMILES): O=C(Nc1cccc(-n2cc(-c3ccncc3)c(-c3ccc(Cl)c(O)c3)n2)c1)c1ccc(N2CCOCC2)c(C(F)(F)F)c1
- growth at 0.5 µM [29]: 112%
- growth at 50 µM [30]: 4%
- growth at 0.5 µM [31]: 98%
- growth at 5 µM [32]: 51%
- growth at 50 µM [33]: 36%
- growth at 5 µM [34]: 20%
- growth at 0.05 µM [35]: 85%
- growth at 0.05 µM [36]: 97%
